Columns and labels:
foxtail, giant = experiment: Test C postemergence; format: in vivo, Setaria faberii
Summary of the method: (§1)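 Postemergence values come from plants sprayed at the 1- to 4-leaf stage (2–18 cm) in peat moss–vermiculite medium; preemergence values from seeds treated in a loam–sand blend. Both evaluated visually against controls after 13–15 greenhouse days, scale 0–100.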

kochia = experiment: Test C postemergence; format: in vivo, Kochia scoparia
Summary of the method: as §1

morningglory = experiment: Test C postemergence; format: in vivo, Ipomoea coccinea
Summary of the method: as §1

nutsedge, yellow = experiment: Test C postemergence; format: in vivo, Cyperus esculentus
Summary of the method: as §1

ragweed = experiment: Test C postemergence; format: in vivo, Ambrosia elation
Summary of the method: as §1

soybean = experiment: Test C postemergence; format: in vivo, Glycine max
Summary of the method: as §1

oat, wild = experiment: Test C postemergence; format: in vivo, Avena fatua
Summary of the method: as §1

lambsquarters [1] = experiment: Test C postemergence; format: in vivo, Chenopodium album
Summary of the method: as §1

velvetleaf = experiment: Test C postemergence; format: in vivo, Abutilon theophrasti
Summary of the method: as §1

ryegrass, Italian = experiment: Test C postemergence; format: in vivo, Lolium multiflorum
Summary of the method: as §1

barnyardgrass = experiment: Test C postemergence; format: in vivo, Echinochloa crus-galli
Summary of the method: as §1

galium = experiment: Test C postemergence; format: in vivo, Galium aparine
Summary of the method: as §1

waterhemp = experiment: Test C postemergence; format: in vivo, Amaranthus rudis
Summary of the method: as §1

chickweed = experiment: Test C postemergence; format: in vivo, Stellaria media
Summary of the method: as §1

pigweed = experiment: Test C postemergence; format: in vivo, Amaranthus retroflexus
Summary of the method: as §1

lambsquarters [2] = experiment: Test C preemergence; format: in vivo, Chenopodium album; settings: for Lambsquarters plant response rating: scale 0 to 100 (0 no effect, 100 complete control)
Summary of the method: as §1

[3] = Postemergence, 31 g ai/ha, visually evaluated after 13 to 15 days
[4] = postemergence, 62 g ai/ha, scale 0 to 100
[5] = postemergence, 250 g ai/ha, scale 0 to 100 (0 no effect, 100 complete control)
[6] = postemergence, 125 g ai/ha, scale 0 to 100, 0 no effect, 100 complete control

CCCc1cc(C(=O)NCC)nn1Cc1cc(C(F)(F)F)nn1C [Compound 129]
Plant response rating (scale of 0 to 100 where 0 is no effect and 100 is complete control), Foxtail, Giant (foxtail, giant; [3]): 15 | Foxtail, Giant plant response rating (foxtail, giant; [4]): 20 | Plant response rating, Foxtail, Giant (foxtail, giant; [5]): 45 | Plant response rating, Foxtail, Giant (foxtail, giant; [6]): 35 | Plant response rating (scale of 0 to 100 where 0 is no effect and 100 is complete control), Kochia (kochia; [3]): 90 | Kochia plant response rating (kochia; [4]): 90 | Plant response rating, Kochia (kochia; [5]): 90 | Plant response rating, Kochia (kochia; [6]): 90 | Plant response rating (scale of 0 to 100 where 0 is no effect and 100 is complete control), Morningglory (morningglory; [3]): 80 | Morningglory plant response rating (morningglory; [4]): 100 | Plant response rating, Morningglory (morningglory; [5]): 100 | Plant response rating, Morningglory (morningglory; [6]): 100 | Plant response rating (scale of 0 to 100 where 0 is no effect and 100 is complete control), Nutsedge, Yellow (nutsedge, yellow; [3]): 0 | Nutsedge, Yellow plant response rating (nutsedge, yellow; [4]): 0 | Plant response rating, Nutsedge, Yellow (nutsedge, yellow; [5]): 5 | Plant response rating, Nutsedge, Yellow (nutsedge, yellow; [6]): 5 | Plant response rating (scale of 0 to 100 where 0 is no effect and 100 is complete control), Ragweed (ragweed; [3]): 55 | Ragweed plant response rating (ragweed; [4]): 90 | Plant response rating, Ragweed (ragweed; [5]): 85 | Plant response rating, Ragweed (ragweed; [6]): 75 | Plant response rating (scale of 0 to 100 where 0 is no effect and 100 is complete control), Soybean (soybean; [3]): 85 | Soybean plant response rating (soybean; [4]): 98 | Plant response rating, Soybean (soybean; [5]): 98 | Plant response rating, Soybean (soybean; [6]): 98 | Plant response rating (scale of 0 to 100 where 0 is no effect and 100 is complete control), Oat, Wild (oat, wild; [3]): 30 | Oat, Wild plant response rating (oat, wild; [4]): 30 | Plant response rating, Oat, Wild (oat, wild; [5]): 35 | Plant response rating, Oat, Wild (oat, wild; [6]): 35 | Plant response rating (scale of 0 to 100 where 0 is no effect and 100 is complete control), Lambsquarters (lambsquarters [1]; [3]): 55 | Lambsquarters plant response rating (lambsquarters [1]; [4]): 100 | Plant response rating, Lambsquarters (lambsquarters [1]; [5]): 98 | Plant response rating, Lambsquarters (lambsquarters [1]; [6]): 98 | Plant response rating (scale of 0 to 100 where 0 is no effect and 100 is complete control), Velvetleaf (velvetleaf; [3]): 25 | Velvetleaf plant response rating (velvetleaf; [4]): 65 | Plant response rating (scale of 0 to 100 where 0 is no effect and 100 is complete control), Ryegrass, Italian (ryegrass, Italian; [3]): 0 | Ryegrass, Italian plant response rating (ryegrass, Italian; [4]): 5 | Plant response rating, Ryegrass, Italian (ryegrass, Italian; [5]): 5 | Plant response rating, Ryegrass, Italian (ryegrass, Italian; [6]): 5 | Plant response rating (scale of 0 to 100 where 0 is no effect and 100 is complete control), Barnyardgrass (barnyardgrass; [3]): 5 | Barnyardgrass plant response rating (barnyardgrass; [4]): 10 | Plant response rating, Barnyardgrass (barnyardgrass; [5]): 55 | Plant response rating, Barnyardgrass (barnyardgrass; [6]): 10 | Plant response rating (scale of 0 to 100 where 0 is no effect and 100 is complete control), Galium (galium; [3]): 60 | Galium plant response rating (galium; [4]): 65 | Plant response rating, Galium (galium; [5]): 80 | Plant response rating, Galium (galium; [6]): 80 | Plant response rating (scale of 0 to 100 where 0 is no effect and 100 is complete control), Waterhemp (waterhemp; [3]): 65 | Waterhemp plant response rating (waterhemp; [4]): 90 | Plant response rating, Waterhemp (waterhemp; [5]): 90 | Plant response rating, Waterhemp (waterhemp; [6]): 80 | Plant response rating (scale of 0 to 100 where 0 is no effect and 100 is complete control), Chickweed (chickweed; [3]): 50 | Chickweed plant response rating (chickweed; [4]): 70 | Plant response rating, Chickweed (chickweed; [5]): 100 | Plant response rating, Chickweed (chickweed; [6]): 80 | Plant response rating (scale of 0 to 100 where 0 is no effect and 100 is complete control), Pigweed (pigweed; [3]): 85 | Pigweed plant response rating (pigweed; [4]): 95 | Plant response rating, Pigweed (pigweed; [5]): 95 | Plant response rating, Pigweed (pigweed; [6]): 100 | Plant response rating (scale of 0 to 100), Lambsquarters (lambsquarters [2]; Preemergence, 250 g ai/ha): 100 | Lambsquarters plant response rating (lambsquarters [2]; preemergence, 31 g ai/ha, visual rating, 13 to 15 days): 98 | Lambsquarters plant response rating (lambsquarters [2]; preemergence, 62 g ai/ha, 13 to 15 days): 100 | Plant response rating, Lambsquarters (lambsquarters [2]; preemergence, 125 g ai/ha, 13 to 15 days, scale 0 to 100, 0 = no effect, 100 = complete control): 100
